# From article PMC7708037, “Targeting OGG1 arrests cancer cell proliferation by inducing replication stress” (Nucleic Acids Research, 2020)
# Read-outs that look alike come from different tables or passages of the source.
# Tests used:
# [1] = test system: SaOS2; test: Resazurin viability, 5 days; format: cell-based, human; conditions: SaOS2, C, Osteosarcoma
# Protocol: (§1) Cells were seeded in 96- or 384-well plates and incubated for 3 days for combination experiments or 5 days for single-drug exposure experiments. Resazurin (R7017, SigmaAldrich) was added to a final concentration of 0.01 mg/ml resazurin and fluorescence was measured at ex530/em590 after incubation for 2, 4 or 6 h. Curves were fitted using XLfit software (IDBS) or Prism 8.0 (Graphpad Software), and EC50 values were determined.
# (§2) Supplementary Table S1: Effect of OGG1 inhibitors on cancer and non-transformed cell lines.
# (§3) Cell lines were incubated with a dilution series of the indicated compounds for 5 days, and viability
# (§4) assessed with resazurin. EC50-values were calculated based on the resulting dose -response curves.
# (§5) The number of independent experiments is indicated for each value.
# (§6) C=cancer;N=non- Disease EC50 n= EC50 n= EC50 n=
# [2] = test system: HCT116+Chr3; test: Resazurin viability, 5 days; format: cell-based, human; conditions: HCT116+Chr3, C, Colorectal carcinoma with WT Chr3
# Protocol: as §1, §2, §3, §4, §5, §6
# [3] = test system: HCT116; test: Resazurin viability, 5 days; format: cell-based, human; conditions: HCT116, C, Colorectal carcinoma
# Protocol: as §1, §2, §3, §4, §5, §6
# [4] = test system: KG1a; test: Resazurin viability, 5 days; format: cell-based, human; conditions: C, Acute myelogenous leukemia
# Protocol: as §1, §2, §3, §4, §5, §6
# [5] = test system: Daudi; test: Resazurin viability, 5 days; format: cell-based, human; conditions: C, Burkitt's lymphoma
# Protocol: as §1, §2, §3, §4, §5, §6
# [6] = test system: Raji; test: Resazurin viability, 5 days; format: cell-based, human; conditions: C, Burkitt's lymphoma
# Protocol: as §1, §2, §3, §4, §5, §6
# [7] = test system: SW480; test: Resazurin viability, 5 days; format: cell-based, human; conditions: SW480, C, Colorectal adenocarcinoma
# Protocol: as §1, §2, §3, §4, §5, §6
# [8] = test system: M059J; test: Resazurin viability, 5 days; format: cell-based, human; conditions: C, Glioblastoma
# Protocol: as §1, §2, §3, §4, §5, §6
# [9] = test system: MV4-11; test: Resazurin viability, 5 days; format: cell-based, human; conditions: MV4-11, C, Acute monocytic leukemia
# Protocol: as §1, §2, §3, §4, §5, §6
# [10] = test system: M059K; test: Resazurin viability, 5 days; format: cell-based, human; conditions: C, Glioblastoma
# Protocol: as §1, §2, §3, §4, §5, §6
# [11] = test system: CCD841; test: Resazurin viability, 5 days; format: cell-based, human; conditions: CCD841, N, Non-transformed fibroblast
# Protocol: as §1, §2, §3, §4, §5, §6
# [12] = test system: HL-60; test: Resazurin viability, 5 days; format: cell-based, human; conditions: HL-60, C, Acute promyelocytic leukemia
# Protocol: as §1, §2, §3, §4, §5, §6
# [13] = test system: BJ-Tert; test: Resazurin viability, 5 days; format: cell-based, human
# Protocol: as §1, §2, §3, §4, §5, §6
# [14] = test system: 786-0; test: Resazurin viability, 5 days; format: cell-based, human; conditions: 786-0, C, Kidney adenocarcinoma
# Protocol: as §1, §2, §3, §4, §5, §6
# [15] = test system: H460; test: Resazurin viability, 5 days; format: cell-based, human; conditions: H460, C, Large cell lung carcinoma
# Protocol: as §1, §2, §3, §4, §5, §6
# [16] = test system: A498; test: Resazurin viability, 5 days; format: cell-based, human; conditions: A498, C, Kidney carcinoma
# Protocol: as §1, §2, §3, §4, §5, §6
# [17] = test system: U2OS; test: Resazurin viability, 5 days; format: cell-based, human; conditions: C, Osteosarcoma
# Protocol: as §1, §2, §3, §4, §5, §6
# [18] = test system: PL-21; test: Resazurin viability, 5 days; format: cell-based, human; conditions: PL-21, C, Acute myeloid leukemia
# Protocol: as §1, §2, §3, §4, §5, §6
# [19] = test system: Rec1; test: Resazurin viability, 5 days; format: cell-based, human; conditions: Rec1, C, B cell non-Hodgkin's lymphoma
# Protocol: as §1, §2, §3, §4, §5, §6
# [20] = test system: HeLa; test: Resazurin viability, 5 days; format: cell-based, human; conditions: C, Cervix adenomcarcinoma
# Protocol: as §1, §2, §3, §4, §5, §6
# [21] = test system: DU145; test: Resazurin viability, 5 days; format: cell-based, human; conditions: DU145, C, Prostate carcinoma
# Protocol: as §1, §2, §3, §4, §5, §6
# [22] = test system: T98G; test: Resazurin viability, 5 days; format: cell-based, human; conditions: C, Glioblastoma
# Protocol: as §1, §2, §3, §4, §5, §6
# [23] = test system: MOLT4; test: Resazurin viability, 5 days; format: cell-based, human; conditions: MOLT4, C, T-cell acute lymphoblastic leukemia
# Protocol: as §1, §2, §3, §4, §5, §6
# [24] = test system: MEF Ogg1(-/-); test: Resazurin viability, 5 days; format: cell-based; conditions: N, Non-transformed mouse embryonic fibroblast
# Protocol: as §1, §2, §3, §4, §5, §6
# transformed (µM) (µM) (µM) […]
# [25] = test system: CCRF-CEM; test: Resazurin viability, 5 days; format: cell-based, human; conditions: C, T-cell acute lymphoblastic leukemia
# Protocol: as §1, §2, §3, §4, §5, §6
# (§7) transformed (µM) (µM) (µM)
# A3 C T-cell acute lymphoblastic leukemia 10.0 12 7.9 7 9.8 5 […]
# CCRF-CEM C T-cell acute lymphoblastic leukemia 13.0 5 10.5 2 7.9 2 […]
# [26] = target: OGG1 enzyme (Homo sapiens, UniProt O15527); test: OGG1 activity in vitro (biochemical assay); conditions: for IC50: 1 nM OGG1, 10 nM 8oxoA:C substrate, 2 nM APE1, read-out: IC50 of OGG1 inhibition
# Chain of OGG1 enzyme (O15527 whole entry): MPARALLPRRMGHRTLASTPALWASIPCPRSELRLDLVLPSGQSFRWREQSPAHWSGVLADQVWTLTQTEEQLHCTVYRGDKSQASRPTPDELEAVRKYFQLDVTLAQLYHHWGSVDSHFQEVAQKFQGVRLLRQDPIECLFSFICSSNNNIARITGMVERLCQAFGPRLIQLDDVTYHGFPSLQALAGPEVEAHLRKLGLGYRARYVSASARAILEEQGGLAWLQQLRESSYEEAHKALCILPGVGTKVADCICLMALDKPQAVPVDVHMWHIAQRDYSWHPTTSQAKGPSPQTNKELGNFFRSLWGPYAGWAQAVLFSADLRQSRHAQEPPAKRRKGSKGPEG
# Protocol: OGG1 activity was assessed in vitro as previously described ([39]).
# Figure 7. […] (A) Lack of TH5487 efficacy in vivo. A3 cells were injected subcutaneously in mice, allowed to graft for three days and then administered […] TH5487 orally, once a day on weekdays. Twelve days into the treatment, the dose was increased to 40 mg/kg. Data are average ± SD (n = 9 per treatment group). (B) TH5487 target engagement in A3 xenograft. Tumors were excised following termination, and TH5487 target engagement was analyzed by cellular thermal shift assay, using an antibody specific for the human OGG1 protein. Data are average ± SD (n = 4 different tumors per group). (C) Effect of bovine serum albumin on OGG1 inhibition by TH5487. A dilution series of TH5487 was incubated with OGG1 enzyme and a DNA reporter oligonucleotide containing an OGG1-substrate, in the presence or absence of 1% (w/v) bovine serum albumin. Data are average ± SD of four technical replicates from two independent experiments.
# Supplementary Fig. S4: OGG1 inhibitors selectively inhibt cancer cell line proliferation A. TH5796 and TH6943 inhibit OGG1 activity in vitro. OGG1 enzyme was treated with the indicated concentration inhibitor in technical duplicates. The line connects the average values. TH5796 inhibits OGG1 with an […]
# with the indicated concentrations of TH5796 or TH6943 and 10 nM 8oxoA:C substrate in the presence of 2 nM APE1 as described. B. Chemical structure of TH5487 and the analogues described in this work.
# C. Correlation between TH5487 EC 50 values and TH5796 or TH6943. Cell lines were treated for five […]
# experiments. The lines indicate the best fit linear regression line, and R 2 the corresponding coefficient of determination. D. to F. Cancer cell selectivity for TH5487 (D), TH5796 (E) and TH6943 (F). Cell lines were treated as in Fig. 3E, and each point represents the EC50 value determined from 1 –5 independent […]
# (1 picture or pasted object on this page, not shown here)
# [27] = test system: A3; test: Resazurin viability, 5 days; format: cell-based, human; conditions: A3, C, T-cell acute lymphoblastic leukemia
# Protocol: as §1, §2, §3, §4, §5, §6, §7
# [28] = Homo sapiens, 120 h, BJ-Tert, N, Tert-Immortalized fibroblast, 5 days, resazurin, read-out: EC50
structure (smiles),measurement,setting,value
"Cc1cc(NC(=O)N2CCC(n3c(=O)[nH]c4c(Br)cccc43)CC2)ccc1I [TH6943, 4-(4-Bromo-2-oxo-3H-benzimidazol-1-yl)-N-(4-iodo-3-methyl-phenyl)piperidine-1-carboxamide]",EC50,"[1]; Homo sapiens, SAOS-2, 120 h",19.8 µM
same,EC50,"[2]; Homo sapiens, 120 h",20.3 µM
same,EC50,"[3]; Homo sapiens, HCT-116, 120 h",28.6 µM
same,EC50,"[4]; Homo sapiens, KG-1a, 120 h",18.8 µM
same,EC50,"[5]; Homo sapiens, 120 h",12.1 µM
same,EC50,"[6]; Homo sapiens, 120 h",23.4 µM
same,EC50,"[7]; Homo sapiens, 120 h",29.8 µM
same,EC50,"[8]; Homo sapiens, 120 h",29.4 µM
same,EC50,"[9]; Homo sapiens, 120 h",9.6 µM
same,EC50,"[10]; Homo sapiens, 120 h",27 µM
same,EC50,"[11]; Homo sapiens, CCD-841, 120 h",54.2 µM
same,EC50,"[12]; Homo sapiens, 120 h",23.9 µM
same,EC50,[13]; [28],30.5 µM
same,EC50,"[14]; Homo sapiens, 120 h",33 µM
same,EC50,"[15]; Homo sapiens, NCI-H460, 120 h",16.5 µM
same,EC50,"[16]; Homo sapiens, 120 h",35.1 µM
same,EC50,"[17]; Homo sapiens, 120 h",25.1 µM
same,EC50,"[18]; Homo sapiens, 120 h",18.4 µM
same,EC50,"[19]; Homo sapiens, 120 h",14.8 µM
same,EC50,"[20]; Homo sapiens, 120 h",34.9 µM
same,EC50,"[21]; Homo sapiens, DU-145, 120 h",3.1 µM
same,EC50,"[22]; Homo sapiens, 120 h",16.7 µM
same,EC50,"[23]; Homo sapiens, MOLT-4, 120 h",17.4 µM
same,EC50,[24]; 120 h,34.3 µM
same,EC50,"[25]; Homo sapiens, 120 h",7.9 µM
same,IC50,[26],0.17 µM
same,EC50,"[27]; Homo sapiens, 120 h",9.8 µM
O=C(Nc1ccc(I)cc1)N1CCC(n2c(=O)[nH]c3c(Br)cccc32)CC1 [TH5487],EC50,[1],21.4 µM
same,EC50,[2],20.6 µM
same,EC50,[3],17.5 µM
same,EC50,[4],14.3 µM
same,EC50,[5],16.6 µM
same,EC50,[6],19 µM
same,EC50,[7],33.3 µM
same,EC50,[8],26.1 µM
same,EC50,[9],7.8 µM
same,EC50,[10],20.3 µM
same,EC50,[11],43.3 µM
same,EC50,[12],15.9 µM
same,EC50,"[13]; BJ-Tert, N, Tert-Immortalized fibroblast, 5 days, resazurin, read-out: EC50",33.7 µM
same,EC50,"[13]; hTERT-immortalized BJ fibroblasts, five days, Figure 3C, read-out: EC50 (viability)",29.5 ± 4.7 µM
same,EC50,[14],29.7 µM
same,EC50,[15],10.1 µM
same,EC50,[16],28.5 µM
same,EC50,[17],19.5 µM
same,EC50,[18],20.6 µM
same,EC50,[19],13.7 µM
same,EC50,[20],19.3 µM
same,EC50,[21],13.2 µM
same,EC50,[22],14.5 µM
same,EC50,[23],13.2 µM
same,EC50,[24],47.7 µM
same,EC50,[25],13 µM
same,Effect of bovine serum albumin on OGG1 inhibition,[26]; presence of 1% (w/v) bovine serum albumin,marked loss of inhibition of OGG1 enzyme activity
same,EC50,[27],10 µM
"O=C(Nc1ccc(Cl)c(Cl)c1)N1CCC(n2c(=O)[nH]c3c(-c4ccc(CO)nc4)cccc32)CC1 [TH5796, N-(3,4-Dichlorophenyl)-4-[4-[6-(hydroxymethyl)-3-pyridyl]-2-oxo-3H-benzimidazol-1-yl]piperidine-1-carbox amide]",EC50,"[1]; Homo sapiens, SAOS-2, 120 h",16.2 µM
same,EC50,"[2]; Homo sapiens, 120 h",16.7 µM
same,EC50,"[3]; Homo sapiens, HCT-116, 120 h",14.7 µM
same,EC50,"[4]; Homo sapiens, KG-1a, 120 h",18 µM
same,EC50,"[5]; Homo sapiens, 120 h",10.1 µM
same,EC50,"[6]; Homo sapiens, 120 h",20.5 µM
same,EC50,"[7]; Homo sapiens, 120 h",20.3 µM
same,EC50,"[8]; Homo sapiens, 120 h",20.6 µM
same,EC50,"[9]; Homo sapiens, 120 h",6.5 µM
same,EC50,"[10]; Homo sapiens, 120 h",19.4 µM
same,EC50,"[11]; Homo sapiens, CCD-841, 120 h",39.7 µM
same,EC50,"[12]; Homo sapiens, 120 h",14.4 µM
same,EC50,[13]; [28],24.4 µM
same,EC50,"[14]; Homo sapiens, 120 h",15.2 µM
same,EC50,"[15]; Homo sapiens, NCI-H460, 120 h",14.4 µM
same,EC50,"[16]; Homo sapiens, 120 h",21.2 µM
same,EC50,"[17]; Homo sapiens, 120 h",16.1 µM
same,EC50,"[18]; Homo sapiens, 120 h",10.2 µM
same,EC50,"[19]; Homo sapiens, 120 h",12.6 µM
same,EC50,"[20]; Homo sapiens, 120 h",15.8 µM
same,EC50,"[21]; Homo sapiens, DU-145, 120 h",10.7 µM
same,EC50,"[22]; Homo sapiens, 120 h",18.5 µM
same,EC50,"[23]; Homo sapiens, MOLT-4, 120 h",12.6 µM
same,EC50,[24]; 120 h,45.8 µM
same,EC50,"[25]; Homo sapiens, 120 h",10.5 µM
same,IC50,[26],0.766 µM
same,EC50,"[27]; Homo sapiens, 120 h",7.9 µM
